IC50 data for five compounds are collected here from US12534469B2 (CHILDREN'S HOSPITAL MEDICAL CENTER, priority 2020, dated 2026).

Broadly, the IC50 is the concentration that gives 50% inhibition.

One assay addresses T1, IRAK4 (Homo sapiens, UniProt Q9NWZ3).
T1 sequence (Q9NWZ3 1-460): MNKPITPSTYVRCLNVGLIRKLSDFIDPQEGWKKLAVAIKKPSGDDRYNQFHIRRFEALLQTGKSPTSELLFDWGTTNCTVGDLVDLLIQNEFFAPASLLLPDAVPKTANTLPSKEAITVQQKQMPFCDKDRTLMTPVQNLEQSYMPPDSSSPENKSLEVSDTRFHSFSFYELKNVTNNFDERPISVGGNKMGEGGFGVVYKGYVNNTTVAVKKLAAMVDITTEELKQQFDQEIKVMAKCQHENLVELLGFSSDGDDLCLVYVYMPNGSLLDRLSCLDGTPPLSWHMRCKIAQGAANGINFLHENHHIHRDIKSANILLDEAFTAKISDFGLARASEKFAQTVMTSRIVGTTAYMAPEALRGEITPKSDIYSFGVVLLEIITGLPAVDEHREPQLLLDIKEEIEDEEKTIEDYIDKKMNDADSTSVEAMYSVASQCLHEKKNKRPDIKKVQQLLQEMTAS
The assay can be described thus: RBC HotSpot Kinase Assay, IRAK4. In kind it is biochemical. More on the design: purchased Reaction Biology (RBC HotSpot Kinase Assay). The gist of the method:
(§1)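 Radiometric filter-binding (HotSpot) activity assay on isolated recombinant kinase, possibly truncated or catalytic domain only, in 20 mM Hepes pH 7.5, 10 mM MgCl2, 1 mM EGTA, 2 mM DTT, 1% DMSO. Compound preincubated 20 min with kinase and substrate, then ^33P-ATP added. Reaction 2 h at room temperature, read by P81 filter binding.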

In a further assay the test system is THP-1-Blue NF-κB cells. The assay can be described thus: NF-kB SEAP reporter assay in THP-1-Blue NF-κB cells. Particulars: 24 hours. Format: cell-based. The protocol:
THP-1-Blue NF-κB cells (InvivoGen) carrying a stable integrated NF-κB-inducible secreted embryonic alkaline phosphatase (SEAP) reporter construct were plated at a concentration of 1×10^5 cells per well. The cells were stimulated with Pam3CSK4 (1 ng/mL) or hIL1B (1 ng/mL). After 10-20 minutes, the cells were then treated with vehicle (DMSO) or serial dilutions of the test compounds (10 doses tested for each test compound, with a 1:10 dilution series starting at 1 μM or 3 μM) with a final volume of 200 μL for 24 hours at 37° C. After 24 hours, the cells were centrifuged and 20 μL supernatant was incubated with 180 μL QUANTI-Blue reagent at 37° C. for 30-60 minutes. The levels of NF-κB-induced gene expression were measured in a microplate reader at 620 nm.
On the technique in general: Reporter assays use an easily measured gene product as a stand-in for the process of interest.

In a further assay the target is T2, IRAK1 (Homo sapiens, UniProt P51617).
T2 construct: purchased Reaction Biology (RBC HotSpot Kinase Assay)
Nature of the assay: RBC HotSpot Kinase Assay, IRAK1. Format: biochemical. The essentials: as §1

The next assay deals with T3, FLT3 (Homo sapiens, UniProt P36888).
T3 construct: purchased Reaction Biology (RBC HotSpot Kinase Assay)
T3 sequence (P36888 564-958 limits assumed): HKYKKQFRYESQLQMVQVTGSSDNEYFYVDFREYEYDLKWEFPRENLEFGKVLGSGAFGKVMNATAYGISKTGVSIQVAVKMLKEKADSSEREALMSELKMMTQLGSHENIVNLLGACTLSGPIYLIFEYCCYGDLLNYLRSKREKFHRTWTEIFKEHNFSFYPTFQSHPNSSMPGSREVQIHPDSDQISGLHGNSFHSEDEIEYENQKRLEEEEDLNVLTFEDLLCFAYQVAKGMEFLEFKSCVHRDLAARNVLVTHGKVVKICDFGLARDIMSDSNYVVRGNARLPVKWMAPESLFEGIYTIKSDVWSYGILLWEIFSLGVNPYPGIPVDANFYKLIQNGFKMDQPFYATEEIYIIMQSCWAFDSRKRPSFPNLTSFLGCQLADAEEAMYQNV
Nature of the assay: RBC HotSpot Kinase Assay, FLT3. Format: biochemical. The gist of the method: as §1

A further assay deals with MOLM14 D835Y cells. Nature of the assay: MOLM14 D835Y cell viability assay (Cell Titer Glo). In kind it is cell-based. As for the experimental part: (§2) Both cell lines have activated FLT3 receptors, each of which carry additional resistance mutations in the kinase domain (D835Y and F691L, respectively).
(§3) MOLM14 D835Y and MOLM14 F691L cells were grown in RPMI-1640 media supplemented with 20% fetal bovine serum (FBS). For viability/cytotoxicity assessments, cells were seeded into 1536-well white polystyrene tissue culture-treated Greiner plates using a Multidrop Combi dispenser (ThermoFisher), in final volume 5 μL of growth media per well, at a density of 1000 cells per well. After cell addition, 23 nL of test compound were transferred into individual wells (22 doses tested for each test compound, with a 1:2 dilution series starting at 10 μM) via a 1536 pin-tool. Bortezomib (final concentration 2.3 μM) was used as a positive control for cell cytotoxicity. Plates were incubated for 48 hours at standard incubator conditions covered by a stainless steel gasketed lid to prevent evaporation. 48 hours post compound addition, 3 μL of Cell Titer Glo (Promega) were added to each well and plates were incubated at room temperature for 15 minutes with the stainless-steel lid in place. Luminescence readings were taken using a Viewlux imager (PerkinElmer) with a 2 second exposure time per plate.
In general terms: Cellular ATP, detected with luciferase, serves as a proxy for viable cell number.

The next assay relates to MOLM14 F691L cells. Nature of the assay: MOLM14 F691L cell viability assay (Cell Titer Glo). Format: cell-based. As for the experimental part: as §2, §3
[1] abbreviates: stimulated with Pam3CSK4 (1 ng/mL), read-out: NF-κB Pam3SCK4 IC50.
[2] abbreviates: stimulated with hIL1B (1 ng/mL), read-out: NF-κB IL1B IC50.

Like-named read-outs stand apart in the source and are kept apart here. A value given as a limit tells only on which side of the number the result lay.

T2 sequence (P51617 whole entry): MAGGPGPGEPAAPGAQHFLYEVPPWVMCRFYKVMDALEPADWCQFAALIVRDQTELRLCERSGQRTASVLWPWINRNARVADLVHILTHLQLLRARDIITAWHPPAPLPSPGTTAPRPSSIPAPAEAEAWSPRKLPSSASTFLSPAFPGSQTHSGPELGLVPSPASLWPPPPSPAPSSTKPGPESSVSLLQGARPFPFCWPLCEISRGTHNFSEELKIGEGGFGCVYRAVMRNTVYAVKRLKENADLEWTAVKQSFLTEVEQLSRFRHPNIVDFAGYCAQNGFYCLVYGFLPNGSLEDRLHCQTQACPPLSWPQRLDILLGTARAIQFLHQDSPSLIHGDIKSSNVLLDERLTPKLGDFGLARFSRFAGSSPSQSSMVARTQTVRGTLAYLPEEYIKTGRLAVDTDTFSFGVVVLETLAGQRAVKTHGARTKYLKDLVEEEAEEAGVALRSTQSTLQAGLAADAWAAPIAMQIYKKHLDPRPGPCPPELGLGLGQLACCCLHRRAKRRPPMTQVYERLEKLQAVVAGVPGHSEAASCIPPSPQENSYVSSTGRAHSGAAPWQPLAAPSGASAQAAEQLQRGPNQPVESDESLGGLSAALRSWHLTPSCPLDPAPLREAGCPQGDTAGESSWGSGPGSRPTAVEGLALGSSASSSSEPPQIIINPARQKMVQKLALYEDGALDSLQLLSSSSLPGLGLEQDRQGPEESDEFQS

Regarding `COc1cc2ncc(-c3cccc(N[C@H]4CNC[C@@H]4F)n3)n2nc1C(F)F` [Compound 116, 6-(6-(difluoromethyl)-7-methoxyimidazo[1,2-b]pyridazin-3-yl)-N-((3S,4S)-4-fluoropyrrolidin-3-yl)pyridin-2-amine], the IC50 at IRAK4 was < 0.0005 µM; in the assay with THP-1-Blue NF-κB cells (setting [1]), 0.02 µM; in the assay on THP-1-Blue NF-κB cells (setting [2]), 0.046 µM; on IRAK1, 0.025 µM; against FLT3 it was < 0.0005 µM; in the assay with MOLM14 D835Y cells (Homo sapiens, MOLM-14, 48 h), 0.077 µM. Further, the midpoint of inhibition with MOLM14 F691L cells (Homo sapiens, MOLM-14, 48 h), the IC50, lay at 1.09 µM.
`COc1cc2ncc(-c3cc(F)cc(N[C@@H]4CCCNC4)n3)n2nc1C1CC1` [Compound 104, (R)-6-(6-cyclopropyl-7-methoxyimidazo[1,2-b]pyridazin-3-yl)-4-fluoro-N-(piperidin-3-yl)pyridin-2-amine]: the IC50 is 0.045 µM against IRAK4; 1.34 µM against IRAK1; < 0.0005 µM at FLT3; 0.193 µM with MOLM14 D835Y cells (Homo sapiens, MOLM-14, 48 h); 1.15 µM in the assay with MOLM14 F691L cells (Homo sapiens, MOLM-14, 48 h).
For `COc1cc2ncc(-c3cccc(N[C@H]4CNCC[C@@H]4F)n3)n2nc1C(F)F` [Compound 118, 6-(6-(difluoromethyl)-7-methoxyimidazo[1,2-b]pyridazin-3-yl)-N-((3S,4S)-4-fluoropiperidin-3-yl)pyridin-2-amine], the IC50 against IRAK4 is 0.002 µM; with THP-1-Blue NF-κB cells (setting [1]) it was 0.076 µM; in the assay with THP-1-Blue NF-κB cells (setting [2]) it was 0.216 µM; at IRAK1 it was 0.07 µM; on FLT3, < 0.0005 µM; with MOLM14 D835Y cells (Homo sapiens, MOLM-14, 48 h), 0.061 µM. In addition, the IC50 with MOLM14 F691L cells (Homo sapiens, MOLM-14, 48 h) was found to be 0.77 µM.
Regarding `COc1cc2ncc(-c3cccc(N[C@H]4CNCC[C@@H]4F)n3)n2nc1C(C)(O)C(F)(F)F` (single isomer, unassigned; slow-eluting) [Compound 136], the IC50 on IRAK4 is 0.01 µM; at IRAK1 it was 3.14 µM; against FLT3, < 0.0005 µM; in the assay on MOLM14 D835Y cells (48 hours), 0.031 µM; with MOLM14 F691L cells (48 hours), 0.344 µM.
Turning to `COc1cc2ncc(-c3cccc(N[C@H]4CNCC[C@@H]4F)n3)n2nc1-c1cn[nH]c1` [Compound 120, N-((3S,4S)-4-fluoropiperidin-3-yl)-6-(7-methoxy-6-(1H-pyrazol-4-yl)imidazo[1,2-b]pyridazin-3-yl)pyridin-2-amine], the concentration for half-maximal inhibition (IC50) was < 0.0005 µM against IRAK4; 0.085 µM on IRAK1; < 0.0005 µM against FLT3; 0.02 µM with MOLM14 D835Y cells (Homo sapiens, MOLM-14, 48 h); 0.275 µM with MOLM14 F691L cells (Homo sapiens, MOLM-14, 48 h).
